Activity calls are given as the source filed them.
Experiments:
[1] = biological target: T1, Replicative DNA helicase DnaB (Mycobacterium tuberculosis, UniProt P9WMR3); test: DnaB intein splicing inhibitors, dose response, biochemical, cell-free fluorescence (AID 449749); type: functional
T1 sequence (P9WMR3 whole entry): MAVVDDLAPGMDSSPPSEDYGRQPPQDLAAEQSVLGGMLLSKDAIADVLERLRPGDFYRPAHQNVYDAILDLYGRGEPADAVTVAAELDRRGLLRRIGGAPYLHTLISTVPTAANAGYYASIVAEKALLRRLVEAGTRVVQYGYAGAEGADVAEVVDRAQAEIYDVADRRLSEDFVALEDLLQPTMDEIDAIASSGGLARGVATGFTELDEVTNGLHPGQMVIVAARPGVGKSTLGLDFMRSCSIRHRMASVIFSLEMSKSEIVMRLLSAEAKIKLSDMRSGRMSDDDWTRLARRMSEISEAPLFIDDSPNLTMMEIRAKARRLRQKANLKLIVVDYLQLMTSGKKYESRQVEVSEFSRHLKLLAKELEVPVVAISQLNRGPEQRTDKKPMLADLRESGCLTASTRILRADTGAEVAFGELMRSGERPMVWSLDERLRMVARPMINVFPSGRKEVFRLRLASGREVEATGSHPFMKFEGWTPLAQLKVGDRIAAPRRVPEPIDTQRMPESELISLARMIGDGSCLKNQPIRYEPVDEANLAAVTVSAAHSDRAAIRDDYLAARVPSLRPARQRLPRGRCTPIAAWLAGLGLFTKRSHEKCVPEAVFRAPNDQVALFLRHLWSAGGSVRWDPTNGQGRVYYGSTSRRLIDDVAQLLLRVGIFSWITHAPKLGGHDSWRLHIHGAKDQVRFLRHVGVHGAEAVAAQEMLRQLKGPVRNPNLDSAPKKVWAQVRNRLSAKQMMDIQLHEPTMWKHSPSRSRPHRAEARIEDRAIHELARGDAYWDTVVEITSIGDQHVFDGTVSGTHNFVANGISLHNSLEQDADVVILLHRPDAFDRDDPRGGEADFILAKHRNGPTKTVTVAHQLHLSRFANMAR

Protein RecA = biological target: T2, Protein RecA (Mycobacterium tuberculosis, UniProt P9WHJ3); test: Fluorescence Cell-Free Homogeneous Dose Retest to Identify Inhibitors of RecA-Intein Splicing Activity. [Related pubchem assays (depositor defined):AID2097, AID2223, AID489010, AID492950]; type: functional
T2 sequence (P9WHJ3 whole entry): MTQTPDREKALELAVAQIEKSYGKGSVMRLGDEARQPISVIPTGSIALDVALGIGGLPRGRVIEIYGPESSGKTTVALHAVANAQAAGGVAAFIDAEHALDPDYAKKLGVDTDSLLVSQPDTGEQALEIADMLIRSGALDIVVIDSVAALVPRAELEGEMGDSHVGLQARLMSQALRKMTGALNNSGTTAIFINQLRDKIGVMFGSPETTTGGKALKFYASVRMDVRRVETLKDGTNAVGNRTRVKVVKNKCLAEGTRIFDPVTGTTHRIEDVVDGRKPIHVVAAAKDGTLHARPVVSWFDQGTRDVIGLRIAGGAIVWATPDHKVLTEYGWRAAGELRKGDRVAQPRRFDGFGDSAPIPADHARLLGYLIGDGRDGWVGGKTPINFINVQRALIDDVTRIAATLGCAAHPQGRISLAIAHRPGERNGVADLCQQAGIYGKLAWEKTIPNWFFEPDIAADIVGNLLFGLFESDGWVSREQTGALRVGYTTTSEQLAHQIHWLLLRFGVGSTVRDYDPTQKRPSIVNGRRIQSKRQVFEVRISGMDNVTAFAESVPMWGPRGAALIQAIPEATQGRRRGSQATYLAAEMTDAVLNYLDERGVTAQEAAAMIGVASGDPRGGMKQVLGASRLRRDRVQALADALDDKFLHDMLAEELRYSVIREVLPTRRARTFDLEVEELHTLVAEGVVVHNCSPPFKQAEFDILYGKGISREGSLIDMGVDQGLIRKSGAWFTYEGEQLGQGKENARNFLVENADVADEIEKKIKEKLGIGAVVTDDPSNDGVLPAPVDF

[2] = biological target: T3, Tyrosyl-DNA phosphodiesterase 2 (Homo sapiens, UniProt O95551); test: human TDP2 enzyme inhibitors, dose response, biochemical, epi absorbance, IC50 (AID 743297)
T3 sequence (O95551 whole entry): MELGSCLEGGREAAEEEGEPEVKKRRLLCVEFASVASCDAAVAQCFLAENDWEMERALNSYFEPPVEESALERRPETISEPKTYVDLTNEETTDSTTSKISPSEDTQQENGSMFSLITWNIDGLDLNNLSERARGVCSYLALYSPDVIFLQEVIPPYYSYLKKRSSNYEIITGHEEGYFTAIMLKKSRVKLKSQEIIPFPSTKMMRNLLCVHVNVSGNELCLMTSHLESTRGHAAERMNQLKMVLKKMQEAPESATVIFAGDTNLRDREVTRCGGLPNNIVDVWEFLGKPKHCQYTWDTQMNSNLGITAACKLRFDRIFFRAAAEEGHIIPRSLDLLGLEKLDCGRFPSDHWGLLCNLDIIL

Genome polyprotein = Genome polyprotein (dengue virus type 2, UniProt P29990); test: Dengue-2 NS5 methyltransferase inhibitors, primary screen, biochemical, confirmation dose response (AID 588689); type: functional
Genome polyprotein, sequence (P29990 2492-3391 limits assumed): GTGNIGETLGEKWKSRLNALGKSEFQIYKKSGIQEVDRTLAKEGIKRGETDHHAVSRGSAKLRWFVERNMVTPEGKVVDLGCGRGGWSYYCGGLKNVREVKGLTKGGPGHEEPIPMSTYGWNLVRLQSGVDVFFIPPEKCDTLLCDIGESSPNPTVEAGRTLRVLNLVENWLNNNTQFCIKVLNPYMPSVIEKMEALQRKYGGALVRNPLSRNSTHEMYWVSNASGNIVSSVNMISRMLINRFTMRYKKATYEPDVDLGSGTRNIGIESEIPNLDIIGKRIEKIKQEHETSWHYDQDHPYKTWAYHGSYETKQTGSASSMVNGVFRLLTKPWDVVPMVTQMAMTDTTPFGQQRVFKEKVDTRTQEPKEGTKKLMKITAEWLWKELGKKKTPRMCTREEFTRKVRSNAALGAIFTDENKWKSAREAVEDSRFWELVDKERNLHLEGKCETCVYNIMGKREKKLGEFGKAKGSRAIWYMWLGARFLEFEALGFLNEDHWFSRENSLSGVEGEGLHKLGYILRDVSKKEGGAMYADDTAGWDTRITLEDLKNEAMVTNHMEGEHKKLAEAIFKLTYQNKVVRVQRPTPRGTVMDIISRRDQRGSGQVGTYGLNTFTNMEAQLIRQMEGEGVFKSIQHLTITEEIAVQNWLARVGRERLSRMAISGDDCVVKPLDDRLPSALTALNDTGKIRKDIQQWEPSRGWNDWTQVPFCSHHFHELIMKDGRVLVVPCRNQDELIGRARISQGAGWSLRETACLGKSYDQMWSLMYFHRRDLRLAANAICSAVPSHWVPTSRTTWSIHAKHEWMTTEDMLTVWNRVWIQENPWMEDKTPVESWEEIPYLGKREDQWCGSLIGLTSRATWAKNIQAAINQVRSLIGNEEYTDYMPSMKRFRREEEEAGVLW

Compound	AC50 [1]	EC50 (Protein RecA)	IC50 [2]	IC50 (Genome polyprotein)
COC(=O)[C@@H]1[C@@H](C(=O)OC)C2(c3ccccc3-c3ccccc32)N(c2ccc(Cl)cc2)N1C#N	> 120 µM (inactive)	5.38 µM (active)		
Nc1ccc2c(c1)C(=O)C(=O)c1ccccc1-2	5.32 µM (active)	6.36 µM (active)	1.34 µM (active)	
COc1cc(-c2ccc(Nc3ccccc3C(=O)O)c(OC)c2)ccc1Nc1ccccc1C(=O)O				18.8 µM (active)
COc1ccc(OC)c(Nc2cc3ccccc3c(O)n2)c1	> 120 µM (inconclusive)	1.34 µM (active)	24.9 µM (inactive)	
COC(CNC(=O)c1ccc2c3c(onc13)-c1ccccc1C2=O)OC	3.06 µM (active)	5.99 µM (active)		4.67 µM (active)
O=C(O)c1ccc(NC2=C/C(=N/S(=O)(=O)c3ccccc3)c3ccccc3C2=O)cc1			1.88 µM (active)	17.1 µM (active)
Cc1ccc2nc(/C(C#N)=C\c3ccc([N+](=O)[O-])o3)[nH]c2c1		0.454 µM (active)		

Source: ChEMBL document CHEMBL1201862, “PubChem BioAssay data set” (2004)
